Key:
[1] = biological target: aryl hydrocarbon receptor (AhR) (Mus musculus (Mouse), UniProt P30561); test: AhR ligand screening: AhRE-luciferase reporter in transfected Hepa1 cells; type: cell-based; details: for Fold @ 1 nM: fold change of luciferase expression at 1 nM test compound relative to vehicle (0.1% DMSO); for Fold @ 100 nM: fold change of luciferase expression at 100 nM test compound relative to vehicle (0.1% DMSO); for Fold @ 10 uM: fold change of luciferase expression at 10 uM test compound relative to vehicle (0.1% DMSO); for Fold relative to benchmark @ 100 nM: luciferase expression at 100 nM test compound relative to 100 nM benchmark compound 11-cl-BBQ
Procedure, shortened: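 Mouse Hepa1 cells transfected with an AhRE-luciferase reporter were plated at 1×10^4 cells/well, grown overnight, then exposed to compounds. Cell lysates were assayed for luciferase by luminometry, with results given as fold induction over 0.1% DMSO vehicle.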

CYP-1A2 = CYP-1A2 (Homo sapiens (Human), UniProt P05177); test: CYP panel profile: P450 inhibition, CYP-1A2; type: in vitro ADME; details: human liver microsomes; read-out: CYP-1A2 IC50
Method: (§1) 5. CYP Panel Profile: P450 Inhibition
(§2) From 10 mM stock solutions of test compounds, a dilution plate was prepared diluting serially starting from 5 mM up to 2 μM in Acetonitrile/DMSO or Methanol/DMSO Human liver Microsomes were added at required concentration as per specific CYP isoform in a deep well assay plate (1A2, 2C9, 2D6, 2B6, 2C8, 2C19, and 3A4). Compounds were spiked in all wells from dilution plate at final concentrations starting from 50 μM up to 0.02 μM, except for positive and negative control. Specific substrate were added to all wells and reactions were pre-incubated for 10 min. To start reactions, NADPH was added to all wells at 1 mM final concentration. Assay plate was mixed by vortexing and incubated at 37° C. for […] for 3A4.20 min for (1A2, 2C9, 2B6, 2C8, 2D6) and […] for 2C19. A quencher with chilled acetonitrile suitable internal standard was added. Samples were centrifuged and supernatants were collected and subjected to LC-MS/MS analysis for determination.

CYP-2C9 = CYP-2C9 (Homo sapiens (Human), UniProt P11712); test: CYP panel profile: P450 inhibition, CYP-2C9; type: in vitro ADME; details: human liver microsomes
Method: as §1, §2

CYP-2D6 = CYP-2D6 (Homo sapiens (Human), UniProt P10635); test: CYP panel profile: P450 inhibition, CYP-2D6; type: in vitro ADME; details: human liver microsomes
Method: as §1, §2

CYP-2B6 = CYP-2B6 (Homo sapiens (Human), UniProt P20813); test: CYP panel profile: P450 inhibition, CYP-2B6; type: in vitro ADME; details: human liver microsomes
Method: as §1, §2

CYP-2C8 = CYP-2C8 (Homo sapiens (Human), UniProt P10632); test: CYP panel profile: P450 inhibition, CYP-2C8; type: in vitro ADME; details: human liver microsomes
Method: as §1, §2

CYP-2C19 = CYP-2C19 (Homo sapiens (Human), UniProt P33261); test: CYP panel profile: P450 inhibition, CYP-2C19; type: in vitro ADME; details: human liver microsomes
Method: as §1, §2

CYP-3A4 = CYP-3A4 (Homo sapiens (Human), UniProt P08684); test: CYP panel profile: P450 inhibition, CYP-3A4; type: in vitro ADME; details: human liver microsomes
Method: as §1, §2

Chain of CYP-2C19 (P33261 whole entry): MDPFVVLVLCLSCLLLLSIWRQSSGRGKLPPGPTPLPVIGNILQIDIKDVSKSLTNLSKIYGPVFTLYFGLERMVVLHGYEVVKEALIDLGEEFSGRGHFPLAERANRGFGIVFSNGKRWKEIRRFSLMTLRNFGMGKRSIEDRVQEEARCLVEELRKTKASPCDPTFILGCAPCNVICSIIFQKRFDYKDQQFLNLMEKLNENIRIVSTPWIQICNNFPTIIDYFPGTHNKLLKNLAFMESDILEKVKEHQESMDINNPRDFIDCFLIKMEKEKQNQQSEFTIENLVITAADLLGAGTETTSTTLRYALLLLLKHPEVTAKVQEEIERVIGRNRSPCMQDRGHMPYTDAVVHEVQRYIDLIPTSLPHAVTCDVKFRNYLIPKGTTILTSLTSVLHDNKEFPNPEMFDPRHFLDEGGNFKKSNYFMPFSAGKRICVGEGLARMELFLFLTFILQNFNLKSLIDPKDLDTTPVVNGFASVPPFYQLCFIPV
Chain of CYP-2C9 (P11712 whole entry): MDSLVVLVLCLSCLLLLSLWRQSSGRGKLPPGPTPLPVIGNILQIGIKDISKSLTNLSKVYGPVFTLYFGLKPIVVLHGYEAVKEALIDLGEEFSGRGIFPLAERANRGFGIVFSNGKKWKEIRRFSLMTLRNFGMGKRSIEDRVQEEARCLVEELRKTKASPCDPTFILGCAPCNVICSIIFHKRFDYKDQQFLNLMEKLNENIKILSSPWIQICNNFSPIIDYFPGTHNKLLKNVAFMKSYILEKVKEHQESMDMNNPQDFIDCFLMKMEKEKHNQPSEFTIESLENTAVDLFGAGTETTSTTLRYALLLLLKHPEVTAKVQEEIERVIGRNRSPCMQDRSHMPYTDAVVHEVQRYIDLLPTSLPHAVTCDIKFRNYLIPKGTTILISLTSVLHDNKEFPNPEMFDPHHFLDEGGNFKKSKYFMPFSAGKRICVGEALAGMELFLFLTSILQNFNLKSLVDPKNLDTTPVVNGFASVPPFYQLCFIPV
Chain of CYP-1A2 (P05177 whole entry): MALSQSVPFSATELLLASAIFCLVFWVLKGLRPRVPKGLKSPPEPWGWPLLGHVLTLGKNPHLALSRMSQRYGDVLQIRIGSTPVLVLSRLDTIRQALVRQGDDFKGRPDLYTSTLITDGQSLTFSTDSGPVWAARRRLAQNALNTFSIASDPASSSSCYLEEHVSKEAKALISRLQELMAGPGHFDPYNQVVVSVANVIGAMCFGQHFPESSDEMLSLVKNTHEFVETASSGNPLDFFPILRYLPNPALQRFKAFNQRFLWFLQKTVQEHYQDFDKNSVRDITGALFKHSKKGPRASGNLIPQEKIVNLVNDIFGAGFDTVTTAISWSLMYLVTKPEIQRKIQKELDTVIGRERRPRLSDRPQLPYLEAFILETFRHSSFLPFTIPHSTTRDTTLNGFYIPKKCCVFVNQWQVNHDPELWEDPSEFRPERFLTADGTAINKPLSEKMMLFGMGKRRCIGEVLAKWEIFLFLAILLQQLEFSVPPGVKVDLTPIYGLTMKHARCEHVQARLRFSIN
Chain of CYP-2D6 (P10635 whole entry): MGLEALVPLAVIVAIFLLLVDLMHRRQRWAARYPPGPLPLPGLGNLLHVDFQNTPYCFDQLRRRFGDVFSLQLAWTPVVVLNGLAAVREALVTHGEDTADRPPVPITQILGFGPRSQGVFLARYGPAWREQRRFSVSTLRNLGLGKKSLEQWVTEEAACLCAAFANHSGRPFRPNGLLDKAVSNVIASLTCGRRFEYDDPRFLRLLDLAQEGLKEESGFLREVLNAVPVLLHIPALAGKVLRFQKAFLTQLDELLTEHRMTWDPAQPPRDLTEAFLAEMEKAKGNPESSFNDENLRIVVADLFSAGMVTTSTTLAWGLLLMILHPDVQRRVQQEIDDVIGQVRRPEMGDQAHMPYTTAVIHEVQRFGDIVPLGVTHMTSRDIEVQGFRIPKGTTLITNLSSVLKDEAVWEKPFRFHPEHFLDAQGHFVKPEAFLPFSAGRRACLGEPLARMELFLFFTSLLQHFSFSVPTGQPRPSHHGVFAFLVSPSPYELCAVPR
Chain of CYP-2C8 (P10632 whole entry): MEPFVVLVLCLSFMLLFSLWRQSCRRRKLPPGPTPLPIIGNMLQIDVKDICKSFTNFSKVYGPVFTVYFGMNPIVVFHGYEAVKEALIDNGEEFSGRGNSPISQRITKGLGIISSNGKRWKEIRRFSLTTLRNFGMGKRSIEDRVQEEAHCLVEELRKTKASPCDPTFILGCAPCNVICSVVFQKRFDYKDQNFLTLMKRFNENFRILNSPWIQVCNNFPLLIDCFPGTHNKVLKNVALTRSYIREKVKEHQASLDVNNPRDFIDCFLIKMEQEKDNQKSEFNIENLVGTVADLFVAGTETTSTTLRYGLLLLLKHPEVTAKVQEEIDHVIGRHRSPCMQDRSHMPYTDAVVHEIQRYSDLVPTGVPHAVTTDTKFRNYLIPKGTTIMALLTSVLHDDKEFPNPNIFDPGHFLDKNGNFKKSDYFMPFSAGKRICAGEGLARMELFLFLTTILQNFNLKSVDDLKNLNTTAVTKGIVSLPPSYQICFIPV
Chain of CYP-2B6 (P20813 whole entry): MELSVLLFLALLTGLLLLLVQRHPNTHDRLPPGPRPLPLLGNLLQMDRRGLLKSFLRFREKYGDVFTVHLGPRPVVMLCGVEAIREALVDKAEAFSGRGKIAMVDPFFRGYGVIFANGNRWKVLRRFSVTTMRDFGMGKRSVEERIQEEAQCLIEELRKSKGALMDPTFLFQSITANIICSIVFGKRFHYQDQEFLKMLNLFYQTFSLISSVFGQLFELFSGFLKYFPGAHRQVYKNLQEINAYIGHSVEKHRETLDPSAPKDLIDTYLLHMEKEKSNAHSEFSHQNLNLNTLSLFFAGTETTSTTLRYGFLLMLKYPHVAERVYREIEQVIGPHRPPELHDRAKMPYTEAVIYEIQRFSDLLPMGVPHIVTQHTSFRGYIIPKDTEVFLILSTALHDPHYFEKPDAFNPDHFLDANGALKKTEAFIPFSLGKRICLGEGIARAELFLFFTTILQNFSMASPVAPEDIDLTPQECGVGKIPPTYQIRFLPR
Chain of CYP-3A4 (P08684 whole entry): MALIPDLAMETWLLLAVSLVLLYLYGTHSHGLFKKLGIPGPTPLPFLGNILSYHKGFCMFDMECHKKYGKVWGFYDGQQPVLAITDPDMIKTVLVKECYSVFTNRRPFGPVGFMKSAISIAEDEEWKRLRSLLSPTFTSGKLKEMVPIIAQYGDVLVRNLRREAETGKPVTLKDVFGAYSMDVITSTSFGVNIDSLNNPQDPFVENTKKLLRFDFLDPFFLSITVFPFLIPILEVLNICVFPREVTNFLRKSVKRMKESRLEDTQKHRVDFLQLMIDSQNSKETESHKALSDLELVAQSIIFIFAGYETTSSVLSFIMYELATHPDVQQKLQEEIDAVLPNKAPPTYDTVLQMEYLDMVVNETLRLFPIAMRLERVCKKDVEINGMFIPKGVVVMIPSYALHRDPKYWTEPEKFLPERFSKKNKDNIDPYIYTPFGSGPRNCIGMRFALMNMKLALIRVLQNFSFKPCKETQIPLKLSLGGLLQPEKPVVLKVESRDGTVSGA

**Q.** `COC(=O)c1ccc2nc(-c3cccc4ccccc34)n(C(=O)c3ccc(F)c(F)c3)c2c1` [Compound 849] was tested. Which “Fold @ 1 nM” value [1] did it give?
**A.** Its value is 1 fold.

**Q.** And the “Fold @ 100 nM” value [1]?
**A.** Its value is 1 fold.

**Q.** And the “Fold @ 10 uM” value [1]?
**A.** Its value is 1 fold.

**Q.** And the “Fold relative to benchmark @ 100 nM” value [1]?
**A.** Its value is 0.04 fold.

**Q.** And the IC50 (CYP-1A2)?
**A.** Its IC50 is 15.1 µM.

**Q.** What about the IC50 (CYP-2C9) of the same molecule?
**A.** Its IC50 is 7.7 µM.

**Q.** And the IC50 (CYP-2D6)?
**A.** Its IC50 is 19.3 µM.

**Q.** And the IC50 (CYP-2B6)?
**A.** Its IC50 is greater than 48 µM.

**Q.** And the IC50 (CYP-2C8)?
**A.** Its IC50 is 4.1 µM.

**Q.** What about the IC50 (CYP-2C19) of the same molecule?
**A.** The IC50 was 1.5 µM.

**Q.** What about the IC50 (CYP-3A4) of the same molecule?
**A.** Its IC50 is greater than 50 µM.

**Q.** How did the “Fold @ 1 nM” value [1] turn out when `COc1ccc(C(=O)n2c(-c3cccc4ccccc34)nc3cc(Cl)ccc32)cc1` [Compound 535, (5-chloro-2-(naphthalen-1-yl)-1H-benzo[d]imidazol-1-yl)(4-methoxyphenyl)methanone] was run?
**A.** The value was 1 fold.

**Q.** What about the “Fold @ 100 nM” value [1] of the same molecule?
**A.** The value was 38 fold.

**Q.** And the “Fold @ 10 uM” value [1]?
**A.** The value was 44 fold.

**Q.** And the “Fold relative to benchmark @ 100 nM” value [1]?
**A.** The value was 0.95 fold.

**Q.** And the IC50 (CYP-1A2)?
**A.** Its IC50 is 3.9 µM.

**Q.** And the IC50 (CYP-2C9)?
**A.** Its IC50 is 2.5 µM.

**Q.** And the IC50 (CYP-2D6)?
**A.** Its IC50 is greater than 50 µM.

**Q.** What about the IC50 (CYP-2B6) of the same molecule?
**A.** Its IC50 is 21.5 µM.

**Q.** What about the IC50 (CYP-2C8) of the same molecule?
**A.** Its IC50 is 21.8 µM.

**Q.** And the IC50 (CYP-2C19)?
**A.** The IC50 was 2.1 µM.

**Q.** And the IC50 (CYP-3A4)?
**A.** The IC50 was 0.2 µM.

**Q.** What does the source list for `COc1ccc(C(=O)n2c(-c3cccc4ccccc34)nc3ccc(Cl)cc32)cc1` [Compound 536, (6-chloro-2-(naphthalen-1-yl)-1H-benzo[d]imidazol-1-yl)(4-methoxyphenyl)methanone]?
**A.** Fold @ 1 nM [1]: 1 fold; Fold @ 100 nM [1]: 39 fold; Fold @ 10 uM [1]: 41 fold; Fold relative to benchmark @ 100 nM [1]: 0.98 fold; IC50 (CYP-1A2): 0.6 µM; IC50 (CYP-2C9): 4.8 µM; IC50 (CYP-2D6): > 50 µM; IC50 (CYP-2B6): 16 µM; IC50 (CYP-2C8): 17.1 µM; IC50 (CYP-2C19): 2.6 µM; IC50 (CYP-3A4): 1.7 µM

**Q.** How did the “Fold @ 1 nM” value [1] turn out when `O=C(c1ccccc1)n1c(-c2cccc3ccccc23)nc2ccc(Cl)cc21` [Compound 495] was run?
**A.** The value was 2.3 fold.

**Q.** And the “Fold @ 100 nM” value [1]?
**A.** Its value is 25 fold.

**Q.** What about the “Fold @ 10 uM” value [1] of the same molecule?
**A.** Its value is 59 fold.

**Q.** And the “Fold relative to benchmark @ 100 nM” value [1]?
**A.** The value was 0.81 fold.

**Q.** What about the IC50 (CYP-1A2) of the same molecule?
**A.** The IC50 was 0.3 µM.

**Q.** And the IC50 (CYP-2C9)?
**A.** Its IC50 is 5.6 µM.

**Q.** What about the IC50 (CYP-2D6) of the same molecule?
**A.** The IC50 was 32.6 µM.

**Q.** And the IC50 (CYP-2B6)?
**A.** Its IC50 is 19.3 µM.

**Q.** What about the IC50 (CYP-2C8) of the same molecule?
**A.** The IC50 was 1.9 µM.

**Q.** And the IC50 (CYP-2C19)?
**A.** The IC50 was 1.4 µM.

**Q.** And the IC50 (CYP-3A4)?
**A.** The IC50 was 5.3 µM.

**Q.** Which “Fold @ 1 nM” value [1] does the source give for `O=C(c1ccc(F)c(F)c1)n1c(-c2cccc3ccccc23)nc2cc(Cl)ccc21` [Compound 529] here?
**A.** Its value is 2 fold.

**Q.** And the “Fold @ 100 nM” value [1]?
**A.** Its value is 41 fold.

**Q.** What about the “Fold @ 10 uM” value [1] of the same molecule?
**A.** Its value is 52 fold.

**Q.** What about the “Fold relative to benchmark @ 100 nM” value [1] of the same molecule?
**A.** Its value is 1.03 fold.

**Q.** What about the IC50 (CYP-1A2) of the same molecule?
**A.** Its IC50 is 0.6 µM.

**Q.** What about the IC50 (CYP-2C9) of the same molecule?
**A.** The IC50 was 3.5 µM.

**Q.** And the IC50 (CYP-2D6)?
**A.** The IC50 was greater than 50 µM.

**Q.** What about the IC50 (CYP-2B6) of the same molecule?
**A.** Its IC50 is 9.6 µM.

**Q.** And the IC50 (CYP-2C8)?
**A.** The IC50 was 9.6 µM.

**Q.** And the IC50 (CYP-2C19)?
**A.** The IC50 was 3.6 µM.

**Q.** And the IC50 (CYP-3A4)?
**A.** Its IC50 is 1.2 µM.

**Q.** `O=C(c1ccccc1)n1c(-c2cccc3ccccc23)nc2cc(Cl)c(Cl)cc21` [Compound 693] was tested. Which “Fold @ 1 nM” value [1] did it give?
**A.** Its value is 2 fold.

**Q.** What about the “Fold @ 100 nM” value [1] of the same molecule?
**A.** Its value is 32 fold.

**Q.** What about the “Fold @ 10 uM” value [1] of the same molecule?
**A.** Its value is 87 fold.

**Q.** And the “Fold relative to benchmark @ 100 nM” value [1]?
**A.** The value was 1.23 fold.

**Q.** And the IC50 (CYP-1A2)?
**A.** The IC50 was 8.6 µM.

**Q.** And the IC50 (CYP-2C9)?
**A.** Its IC50 is 11.6 µM.

**Q.** What about the IC50 (CYP-2D6) of the same molecule?
**A.** Its IC50 is greater than 50 µM.

**Q.** What about the IC50 (CYP-2B6) of the same molecule?
**A.** Its IC50 is greater than 50 µM.

**Q.** And the IC50 (CYP-2C8)?
**A.** Its IC50 is 3.5 µM.

**Q.** And the IC50 (CYP-2C19)?
**A.** Its IC50 is 24.1 µM.

**Q.** And the IC50 (CYP-3A4)?
**A.** The IC50 was 2 µM.

**Q.** What does the source list for `O=C(C1CCCCC1)n1c(-c2cccc3ccccc23)nc2ccc(Cl)cc21` [Compound 640]?
**A.** Fold @ 1 nM [1]: 1 fold; Fold @ 100 nM [1]: 10 fold; Fold @ 10 uM [1]: 15 fold; Fold relative to benchmark @ 100 nM [1]: 1.21 fold; IC50 (CYP-1A2): 0.6 µM; IC50 (CYP-2C9): 4.5 µM; IC50 (CYP-2D6): 29 µM; IC50 (CYP-2B6): 31.1 µM; IC50 (CYP-2C8): 2.3 µM; IC50 (CYP-2C19): 2.4 µM; IC50 (CYP-3A4): 3.8 µM

**Q.** Which results are given for `O=C(c1ccc(F)c(F)c1)n1c(-c2cccc3ccccc23)nc2cc(Cl)ccc21` [Compound 530]?
**A.** Fold @ 1 nM [1]: 2 fold; Fold @ 100 nM [1]: 39 fold; Fold @ 10 uM [1]: 56 fold; Fold relative to benchmark @ 100 nM [1]: 0.98 fold; IC50 (CYP-1A2): 0.5 µM; IC50 (CYP-2C9): 5 µM; IC50 (CYP-2D6): > 50 µM; IC50 (CYP-2B6): 9.4 µM; IC50 (CYP-2C8): 9.4 µM; IC50 (CYP-2C19): 3.4 µM; IC50 (CYP-3A4): 3.7 µM

**Q.** What does the source list for `O=C(c1ccccc1)n1c(-c2cccc3ccccc23)nc2cc(OC(F)(F)F)ccc21` [Compound 703]?
**A.** Fold @ 1 nM [1]: 1 fold; Fold @ 100 nM [1]: 22 fold; Fold @ 10 uM [1]: 23 fold; Fold relative to benchmark @ 100 nM [1]: 0.85 fold; IC50 (CYP-1A2): 0.8 µM; IC50 (CYP-2C9): 5.3 µM; IC50 (CYP-2D6): > 50 µM; IC50 (CYP-2B6): 12 µM; IC50 (CYP-2C8): 4.2 µM; IC50 (CYP-2C19): 0.5 µM; IC50 (CYP-3A4): 10.3 µM

Source: US12473262B2, “Aryl hydrocarbon receptor activators” (Oregon State University, priority 2019, dated 2025)
